The text below walks through data of PubChem BioAssay AID248 (DTP/NCI, 2004).

In this assay the test system is L1210 leukemia ip in BDF1 mice, survival T/C. Briefly: NCI In Vivo Anticancer Drug Screen. Data for tumor model L1210 Leukemia (intraperitoneal) in B6D2F1 (BDF1) mice. The following applies: endpoint: mean survival time, higher = longer survival. Summed up: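 Tumor cells were implanted, animals were treated, and survival was followed. The result divides the treated measurement by the vehicle-control measurement.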

[1] abbreviates: dose: 100.0 mg/kg/injection, schedule: Q01DX001 (ip), vehicle: Klucel (hydroxypropylcellulose) (HPC).
Where [2] appears, read: dose: 200.0 mg/kg/injection, schedule: Q01DX001 (ip), vehicle: Klucel (hydroxypropylcellulose) (HPC).
Setting [3] is: dose: 400.0 mg/kg/injection, schedule: Q01DX001 (ip), vehicle: Klucel (hydroxypropylcellulose) (HPC).
Setting [4] is: dose: 100.0 mg/kg/injection, schedule: Q04DX003 (ip), vehicle: saline with Tween-80.
The mark [5] stands for this setting: dose: 200.0 mg/kg/injection, schedule: Q04DX003 (ip), vehicle: saline with Tween-80.
Where [6] appears, read: dose: 400.0 mg/kg/injection, schedule: Q04DX003 (ip), vehicle: saline with Tween-80.
Setting [7] is: dose: 100.0 mg/kg/injection, schedule: Q04DX002 (ip), vehicle: saline with Tween-80.
The mark [8] stands for this setting: dose: 200.0 mg/kg/injection, schedule: Q04DX002 (ip), vehicle: saline with Tween-80.
Where [9] appears, read: dose: 400.0 mg/kg/injection, schedule: Q04DX002 (ip), vehicle: saline with Tween-80.
Setting [10] is: dose: 100.0 mg/kg/injection, schedule: Q04DX002 (ip), vehicle: Klucel (hydroxypropylcellulose) (HPC).
Where [11] appears, read: dose: 200.0 mg/kg/injection, schedule: Q04DX002 (ip), vehicle: Klucel (hydroxypropylcellulose) (HPC).
The mark [12] stands for this setting: dose: 400.0 mg/kg/injection, schedule: Q04DX002 (ip), vehicle: Klucel (hydroxypropylcellulose) (HPC).

The structures appear in SMILES notation. “And” between values parts separate entries of the source, which are not always exact repeats. Equal values may be shown once. Inconclusive results and toxic doses are left out.

With `COc1cc(C=Nc2cccc(Br)c2)ccc1N(CCCl)CCCl`, the T/C was 107 % of control (dose: 1.4 mg/kg/injection, schedule: Q01DX015 (ip), vehicle: carboxymethylcellulose (CMC)); 111 % of control (dose: 2.2 mg/kg/injection, schedule: Q01DX015 (ip), vehicle: carboxymethylcellulose (CMC)); 101 % of control (dose: 3.3 mg/kg/injection, schedule: Q01DX009 (ip), vehicle: saline); 113 % of control (dose: 3.3 mg/kg/injection, schedule: Q01DX015 (ip), vehicle: carboxymethylcellulose (CMC)); 116 % of control (dose: 5.0 mg/kg/injection, schedule: Q01DX009 (ip), vehicle: saline); 119 % of control and 121 % of control (dose: 5.0 mg/kg/injection, schedule: Q01DX015 (ip), vehicle: carboxymethylcellulose (CMC)). Moreover, the T/C by setting is: (dose: 9.0 mg/kg/injection, schedule: Q01DX009 (ip), vehicle: saline) 109 % of control; (dose: 9.0 mg/kg/injection, schedule: Q01DX015 (ip), vehicle: carboxymethylcellulose (CMC)) 159 % of control; (dose: 15.0 mg/kg/injection, schedule: Q01DX009 (ip), vehicle: saline) 111 % of control; (dose: 15.0 mg/kg/injection, schedule: Q01DX015 (ip), vehicle: carboxymethylcellulose (CMC)) 105 % of control; (dose: 22.0 mg/kg/injection, schedule: Q01DX001 (ip), vehicle: carboxymethylcellulose (CMC)) 111 % of control; (dose: 25.0 mg/kg/injection, schedule: Q01DX015 (ip), vehicle: carboxymethylcellulose (CMC)) 94 % of control and 97 % of control. For the same molecule, the T/C (dose: 25.0 mg/kg/injection, schedule: Q04DX003 (ip), vehicle: saline) is 86 % of control; the T/C (dose: 33.0 mg/kg/injection, schedule: Q01DX001 (ip), vehicle: carboxymethylcellulose (CMC)) was 108 % of control; the T/C (dose: 50.0 mg/kg/injection, schedule: Q01DX001 (ip), vehicle: carboxymethylcellulose (CMC)) was 113 % of control; the T/C (dose: 50.0 mg/kg/injection, schedule: Q04DX003 (ip), vehicle: saline) is 119 % of control; the T/C (dose: 100.0 mg/kg/injection, schedule: Q01DX001 (ip), vehicle: carboxymethylcellulose (CMC)) is 117 % of control; the T/C (dose: 200.0 mg/kg/injection, schedule: Q01DX001 (ip), vehicle: carboxymethylcellulose (CMC)) was 117 % of control. In addition, the T/C (dose: 400.0 mg/kg/injection, schedule: Q01DX001 (ip), vehicle: carboxymethylcellulose (CMC)) is 123 % of control.
On to `Cc1cc(N(CCCl)CCCl)ccc1C=Nc1cccc2ncccc12`, for which the T/C runs as follows: (dose: 100.0 mg/kg/injection, schedule: Q01DX001 (ip), vehicle: other) 95 % of control; (dose: 200.0 mg/kg/injection, schedule: Q01DX001 (ip), vehicle: other) 97 % of control; (dose: 400.0 mg/kg/injection, schedule: Q01DX001 (ip), vehicle: other) 93 % of control.
Consider `Cc1cc2c(-c3ccccc3)c(C(=O)c3ccccc3)c(C(=O)c3ccccc3)c(-c3ccccc3)c2cc1C`, for which the T/C (dose: 100.0 mg/kg/injection, schedule: Q01DX001 (ip), vehicle: saline with Tween-80) is 89 % of control; the T/C (dose: 200.0 mg/kg/injection, schedule: Q01DX001 (ip), vehicle: saline with Tween-80) was 89 % of control; the T/C (dose: 400.0 mg/kg/injection, schedule: Q01DX001 (ip), vehicle: saline with Tween-80) is 89 % of control.
As to `CC(C)CC(N)C(N)=O` (centres undefined), the T/C (dose: 12.5 mg/kg/injection, schedule: Q04DX002 (ip), vehicle: saline) is 107 % of control; the T/C (dose: 25.0 mg/kg/injection, schedule: Q04DX002 (ip), vehicle: saline) is 100 % of control; the T/C (dose: 50.0 mg/kg/injection, schedule: Q04DX002 (ip), vehicle: saline) was 107 % of control.
For `CC(=O)OCC1OC(n2cnc(N)c2C#N)C(OC(C)=O)C1OC(C)=O` (centres undefined), the T/C is, setting by setting: (dose: 50.0 mg/kg/injection, schedule: Q01DX001 (ip), vehicle: saline) 98 % of control; (dose: 100.0 mg/kg/injection, schedule: Q01DX001 (ip), vehicle: saline) 102 % of control; (dose: 200.0 mg/kg/injection, schedule: Q01DX001 (ip), vehicle: saline) 102 % of control; (dose: 400.0 mg/kg/injection, schedule: Q01DX001 (ip), vehicle: saline) 102 % of control.
In the case of `c1ccc2cc(C3SCCS3)ccc2c1`, the T/C was 88 % of control (dose: 75.0 mg/kg/injection, schedule: Q04DX003 (ip), vehicle: Klucel (hydroxypropylcellulose) (HPC)); 95 % of control under setting [1]; 86 % of control (dose: 150.0 mg/kg/injection, schedule: Q04DX003 (ip), vehicle: Klucel (hydroxypropylcellulose) (HPC)); 97 % of control under setting [2]; 110 % of control (dose: 300.0 mg/kg/injection, schedule: Q04DX003 (ip), vehicle: Klucel (hydroxypropylcellulose) (HPC)); 101 % of control under setting [3].
Take `O=C(O)CNC(=O)CNC(=O)C1NC(C(F)(F)F)(C(F)(F)F)OC1(C(F)(F)F)C(F)(F)F` (centres undefined): the T/C under setting [1] is 97 % of control, the T/C under setting [2] is 101 % of control and the T/C under setting [3] was 92 % of control.
For the molecule `Cc1ccccc1OC(=O)c1ccccc1`, the T/C by setting is: under setting [4], 107 % of control; under setting [5], 104 % of control; under setting [6], 104 % of control.
`CN(C)c1ccc(C(O)C(N)=O)cc1` (centres undefined): the T/C reads like this: (dose: 6.25 mg/kg/injection, schedule: Q01DX001 (ip), vehicle: saline) 103 % of control; (dose: 12.5 mg/kg/injection, schedule: Q01DX001 (ip), vehicle: saline) 94 % of control; (dose: 25.0 mg/kg/injection, schedule: Q01DX001 (ip), vehicle: saline) 97 % of control.
In the case of `Cl[Si](c1ccccc1)(c1ccccc1)c1ccc([Si](Cl)(c2ccccc2)c2ccccc2)cc1`, the T/C runs as follows: under setting [7], 87 % of control; under setting [8], 92 % of control; under setting [9], 96 % of control.
Turning to `Cn1c2c(c(=O)n(C)c1=O)CCC(=O)N2`, the T/C runs as follows: under setting [10], 106 % of control; under setting [11], 98 % of control; under setting [12], 92 % of control.
As for `Oc1ccccc1N=CC1CCCCC1`, the T/C reads like this: under setting [4], 87 % of control; under setting [5], 88 % of control; under setting [6], 92 % of control.
For `Cc1ccc(NC(=O)Oc2ccc(F)cc2)cc1NC(=O)Oc1ccc(F)cc1`, the T/C was 95 % of control (dose: 25.0 mg/kg/injection, schedule: Q01DX009 (ip), vehicle: other); 95 % of control (dose: 50.0 mg/kg/injection, schedule: Q01DX009 (ip), vehicle: other); 94 % of control and 100 % of control (dose: 100.0 mg/kg/injection, schedule: Q01DX009 (ip), vehicle: other).
In the case of `S=P(c1ccccc1)(c1ccccc1)C(P(c1ccccc1)c1ccccc1)P(c1ccccc1)c1ccccc1`, the T/C is 97 % of control under setting [7], 100 % of control under setting [8] and 97 % of control under setting [9].
Take `CC1(C)CC(N=Cc2ccccc2O)CC(C)(C)N1O`: the T/C under setting [4] is 94 % of control, the T/C under setting [5] is 97 % of control and the T/C under setting [6] is 100 % of control.
As to `O=C1OC(=O)C2CC(Cl)C(Cl)CC12` (centres undefined), the T/C is, setting by setting: (dose: 100.0 mg/kg/injection, schedule: Q01DX009 (ip), vehicle: saline with Tween-80) 89 % of control; under setting [4], 89 % of control; (dose: 200.0 mg/kg/injection, schedule: Q01DX009 (ip), vehicle: saline with Tween-80) 86 % of control; under setting [5], 100 % of control; (dose: 400.0 mg/kg/injection, schedule: Q01DX009 (ip), vehicle: saline with Tween-80) 89 % of control; under setting [6], 104 % of control.
`ClCC(Br)CBr` (centres undefined): the T/C runs as follows: (dose: 75.0 mg/kg/injection, schedule: Q01DX001 (ip), vehicle: saline) 106 % of control; (dose: 150.0 mg/kg/injection, schedule: Q01DX001 (ip), vehicle: saline) 104 % of control.
With `N#CCC(=O)Nc1ccccc1`, the T/C reads like this: (dose: 100.0 mg/kg/injection, schedule: Q01DX009 (ip), vehicle: Klucel (hydroxypropylcellulose) (HPC)) 95 % of control; under setting [10], 109 % of control; (dose: 200.0 mg/kg/injection, schedule: Q01DX009 (ip), vehicle: Klucel (hydroxypropylcellulose) (HPC)) 103 % of control; under setting [11], 109 % of control; (dose: 400.0 mg/kg/injection, schedule: Q01DX009 (ip), vehicle: Klucel (hydroxypropylcellulose) (HPC)) 114 % of control; under setting [12], 106 % of control.
